# Laboratory results reported in patent US20080249042A1, “All-Trans-Retinol: All-Trans-13,14-Dihydroretinol Saturase and Methods of Its Use” (UNIVERSITY OF WASHINGTON, priority 2004, published 2008).
# What was measured:
# LRAT = molecular target: T1, LRAT (Mus musculus, UniProt Q9JI60); experiment: Esterification assay, RPE microsomes and HEKK-LRAT cell homogenate; format: biochemical; settings: 10 min, 37° C.
# T1 construct: For expression Lrat coding region was amplified using the primers; expressed in transfected cells; membrane homogenate
# T1 sequence (Q9JI60 1-231): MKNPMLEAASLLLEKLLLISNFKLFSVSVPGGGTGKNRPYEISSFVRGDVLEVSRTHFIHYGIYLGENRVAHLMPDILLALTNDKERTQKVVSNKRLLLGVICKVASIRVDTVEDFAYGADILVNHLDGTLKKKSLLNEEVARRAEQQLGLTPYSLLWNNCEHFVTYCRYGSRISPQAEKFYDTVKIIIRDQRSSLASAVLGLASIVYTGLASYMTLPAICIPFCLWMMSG
# Text: Inducible-Expression Of LRAT Protein in HEKK Cells. Mouse Lrat cDNA was cloned as described elsewhere. For expression Lrat coding region was amplified using the primers: 5′-[…]-3′ (SEQ ID NO: 11) and […] (SEQ ID NO: 12). The PCR product was ligated into the pCR-Blunt II-TOPO vector (Invitrogen) and then subcloned into the EcoRI site of pCDNA4/TO. TetR-expressing HEKK cells were transfected with the pCDNA4/TO-Lrat construct and selected with zeocin. Stable clones were verified for expression of Lrat protein using the anti-LRAT monoclonal antibody described elsewhere (2).
# Esterification assay of all-trans-retinol and all-trans-13,14-dihydroretinol. HEKK-LRAT cells were homogenized in 250 mM sucrose, 10 mM Tris-HCl with the aid of a douncer. RPE microsomes were prepared as previously described. Stecher, et al. J Biol Chem 274:8577-8585, 1999. A substrate solution, 2 μL of 1 mM stock in DMF, was added to a 1.5 ml Eppendorf tube containing 20 μL of 10% BSA and 20 μL of UV-treated RPE microsomes or 100 μL of membrane homogenate of HEKK-LRAT cells and 10 mM BTP (pH 7.5) buffer to a total volume of 200 μL. […] Then 100 μL of the hexane extract was analyzed by normal-phase HPLC, using first 0.5% ethyl acetate in hexane for 10 min to separate retinyl esters and then 20% ethyl acetate in hexane for an additional 10 min to separate retinols. Elution was monitored at 290 nm and 325 nm.
# mouse RetSat = molecular target: T2, mouse RetSat (Mus musculus, UniProt Q64FW2); experiment: RetSat saturase activity in Tet-induced HEKK-RetSat cells; format: cell-based; settings: 40 μM substrate, overnight incubation
# T2 construct: expressed in transfected cells
# T2 sequence (Q64FW2 26-609): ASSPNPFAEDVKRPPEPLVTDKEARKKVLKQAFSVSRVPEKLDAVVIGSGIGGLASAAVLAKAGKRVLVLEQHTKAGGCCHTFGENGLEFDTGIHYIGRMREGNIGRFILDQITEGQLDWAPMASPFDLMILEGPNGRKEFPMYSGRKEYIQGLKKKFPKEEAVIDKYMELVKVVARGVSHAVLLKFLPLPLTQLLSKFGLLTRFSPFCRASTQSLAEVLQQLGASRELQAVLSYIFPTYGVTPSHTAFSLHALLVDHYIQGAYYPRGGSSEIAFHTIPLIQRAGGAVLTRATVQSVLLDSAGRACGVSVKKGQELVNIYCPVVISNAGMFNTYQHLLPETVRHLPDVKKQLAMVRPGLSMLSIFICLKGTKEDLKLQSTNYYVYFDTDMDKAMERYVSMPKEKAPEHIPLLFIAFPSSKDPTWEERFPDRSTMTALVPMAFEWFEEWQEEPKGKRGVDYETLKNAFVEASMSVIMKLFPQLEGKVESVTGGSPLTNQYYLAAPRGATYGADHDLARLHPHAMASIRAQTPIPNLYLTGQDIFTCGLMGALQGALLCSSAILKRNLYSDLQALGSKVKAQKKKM
# Description: Enzyme assays of RetSat and CRTISO-catalyzed reactions. For enzyme assay, cells were seeded in six-well plates and expression of RetSat or CRTISO was induced with 1 μg/ml tetracycline 48 hr prior to analysis. Substrate preparation and addition were conducted under dim red light. Retinoid substrates were purified by HPLC as described above and dissolved in N,N-dimethylformamide (DMF) to a final concentration of 4 mM. Organic extract of tangerine tomatoes was dried under a stream of argon and resuspended in DMF. The substrates were diluted in 300 μl complete media (tetracycline 1 μg/ml) to a 40 μM final concentration, overlayed on cells, and incubated overnight in the dark at 37° C. in 5% CO2 and 100% humidity. Media and cells were collected by scraping, mixed with an equal volume of methanol. For retinol and dihydroretinol analysis the methanol:water mixture was extracted with two volumes of hexane, then the organic phase was dried, resuspended in hexane, and analyzed by normal-phase HPLC. […] For carotenoid analysis the organic phase was dried and resuspended in ethanol/tetrahydrofuran (9:1) and examined by reverse-phase HPLC System I. For retinoic acid analysis the 1:1 methanol:water mixture was acidified with 0.1 volumes of 12N HCl and extracted with 1 volume of chlorofom, dried and resuspended in ethanol and examined by reverse-phase HPLC System II.
Structure (SMILES),Esterification by LRAT (substrate activity) (LRAT),Saturation by RetSat (substrate activity) (mouse RetSat)
"CC1=C(/C=C/C(C)=C/C=C/C(C)CCO)C(C)(C)CCC1 (stereo not drawn) [all-trans-DROL, all-trans-13,14-dihydroretinol]",as good a substrate for LRAT as all-trans-retinol,
"CC1=C(/C=C/C(C)=C/C=C/C(C)=C/C(=O)O)C(C)(C)CCC1 [all-trans-RA, all-trans-retinoic acid, reference compound]",,not substrate
"CC1=C(/C=C/C(C)=C/C=C/C(C)=C/CO)C(C)(C)CCC1 [all-trans-ROL, all-trans-retinol]",,good substrate
